Molecules are shown by their SMILES. Structures can show the parent of a compound that is named as a salt.

The values that follow come from patent US11034698B2, “Pyrazolo[ 1,5a]pyrimidine derivatives as IRAK4 modulators” (priority 2017, dated 2021).

The target of the first assay is human IRAK4 (Homo sapiens (Human), UniProt Q9NWZ3). The assay can be described thus: IRAK4 kinase inhibition, Transcreener fluorescence polarization (ADP). The class given is biochemical.
Chain of human IRAK4 (Q9NWZ3 whole entry): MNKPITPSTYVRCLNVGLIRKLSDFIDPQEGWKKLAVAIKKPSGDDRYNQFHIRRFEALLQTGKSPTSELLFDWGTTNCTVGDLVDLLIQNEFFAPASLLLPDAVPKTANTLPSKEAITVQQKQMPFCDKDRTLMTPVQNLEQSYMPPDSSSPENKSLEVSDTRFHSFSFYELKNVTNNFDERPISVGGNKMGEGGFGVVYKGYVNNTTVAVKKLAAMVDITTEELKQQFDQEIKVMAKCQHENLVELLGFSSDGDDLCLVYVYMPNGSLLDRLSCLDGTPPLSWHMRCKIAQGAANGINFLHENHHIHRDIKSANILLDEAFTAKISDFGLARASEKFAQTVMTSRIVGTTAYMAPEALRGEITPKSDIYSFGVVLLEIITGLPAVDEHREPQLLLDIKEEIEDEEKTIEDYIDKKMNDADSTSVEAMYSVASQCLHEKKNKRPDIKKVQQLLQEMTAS
Details: not given
On the procedure:
Compounds were assayed for inhibition of human IRAK4 and IRAK1 catalytic activity using recombinant enzyme produced from insect cells. Full-length IRAK4 protein, carrying an N-terminal His6-Tag, was obtained from Life Technologies (Carlsbad, Calif., USA). The IRAK1 construct was produced internally and was comprised of IRAK1 residues Arg194 to Ser712, preceded by an NH2-terminal His6 tag and the coding sequence for glutathione-S-transferase.
Kinase activities were assayed using the Transcreener-Fluorecescence polarization platform (BelBrook Labs, Madison, Wis., USA) that measures amounts of the reaction product, ADP.
(In fluorescence polarisation assays a small probe gives low polarisation when free and higher when bound to something large.)
As to `CC(C)(O)[C@H](F)CN1Cc2cc(NC(=O)c3cnn4cccnc34)c(O[C@@H]3CC[C@H](O)C3)cc2C1=O` (single isomer, unassigned) [Example 67], the Ki (usually the dissociation constant of the complex between target and ligand, obtained from inhibition or displacement) amounted to 1.1 nM. For the compound `CC(C)(O)[C@H](F)CN1Cc2cc(NC(=O)c3cnn4cccnc34)c(OC[C@H]3CNC(=O)C3)cc2C1=O` (single isomer, unassigned) [Example 72], affinity was put at a Ki of 1 nM.

In turn, `CC(C)Oc1cc2c(cc1NC(=O)c1cnn3cccnc13)CN([C@@H]1CCOC1)C2=O` (single isomer, unassigned) [Example 69] gave a Ki of 1.8 nM.

Still in this assay, the particulars now being: recombinant full-length His6-IRAK4 1.25 nM; 125 uM ATP; 125 uM peptide; 90 min; ATP Km 642 uM; read-out: IRAK4 Ki.
Consider `Cc1ccc(-c2cc3c(cc2NC(=O)c2cnn4cccnc24)CC(C)(C)O3)nc1` [Example 145, N-[2,2-Dimethyl-6-(5-methyl-2-pyridyl)-3H-benzofuran-5-yl]pyrazolo[1,5-a]pyrimidine-3-carboxamide], for which the Ki is 60 nM. Still for that read-out and setting: with `CC(C)(O)[C@H](F)CN1Cc2cc(NC(=O)c3cnn4cccnc34)c(OC3CNC3)cc2C1=O` [Example 73, N-[6-(Azetidin-3-yloxy)-2-[(2R)-2-fluoro-3-hydroxy-3-methyl-butyl]-1-oxo-isoindolin-5-yl]pyrazolo[1,5-a]pyrimidine-3-carboxamide hydrochloride] the figure was 3.7 nM. As to `CC(C)(O)[C@H](F)CN1Cc2cc(NC(=O)c3cnn4cccnc34)c(N3CCN(CCn4ccnc4)CC3)cc2C1=O` [Example 106, (R)-N-(6-(4-(2-(1H-Imidazol-1-yl)ethyl)piperazin-1-yl)-2-(2-fluoro-3-hydroxy-3-methylbutyl)-1-oxoisoindolin-5-yl)pyrazolo[1,5-a]pyrimidine-3-carboxamide], the Ki came to 2.1 nM. As for `Cc1noc(C)c1CN1CCN(c2cc3c(cc2NC(=O)c2cnn4cccnc24)CC(C)(C)O3)CC1` [Example 16, N-(6-(4-((3,5-Dimethylisoxazol-4-yl)methyl)piperazin-1-yl)-2,2-dimethyl-2,3-dihydrobenzofuran-5-yl)pyrazolo[1,5-a]pyrimidine-3-carboxamide], the inhibition constant Ki was 14 nM. As to `CC(C)N1Cc2cc(NC(=O)c3cnn4cccnc34)c(N(C)C)cc2C1=O` [Example 95, N-[6-(Dimethylamino)-2-isopropyl-1-oxo-isoindolin-5-yl]pyrazolo[1,5-a]pyrimidine-3-carboxamide], the Ki stood at 1.9 nM. Regarding `CC(C)(O)[C@H](F)CN1Cc2cc(NC(=O)c3cnn4cccnc34)c(C3COC3)cc2C1=O` [Example 147, N-[2-[(2R)-2-Fluoro-3-hydroxy-3-methyl-butyl]-6-(oxetan-3-yl)-1-oxo-isoindolin-5-yl]pyrazolo[1,5-a]pyrimidine-3-carboxamide], the Ki was determined as 48 nM. On to `O=C(Nc1cc2c(cc1N1CCOCC1)C(=O)N(CCN1CCCC1)C2)c1cnn2cccnc12` [Example 93, N-[6-Morpholino-1-oxo-2-(2-pyrrolidin-1-ylethyl)isoindolin-5-yl]pyrazolo[1,5-a]pyrimidine-3-carboxamide], for which the Ki stood at 22 nM.

For `CC(C)(O)[C@H](F)CN1Cc2cc(NC(=O)c3cnn4cccnc34)c(OCC3COC3)cc2C1=O` [Example 79, (R)-N-(2-(2-Fluoro-3-hydroxy-3-methylbutyl)-6-(oxetan-3-ylmethoxy)-1-oxoisoindolin-5-yl)pyrazolo[1,5-a]pyrimidine-3-carboxamide], the Ki worked out at 0.97 nM. With `CC(=O)Nc1ccn2ncc(C(=O)Nc3cc4c(cc3N(C)C)C(=O)N(C[C@@H](F)C(C)(C)O)C4)c2n1` [Example 131, (R)-5-Acetamido-N-(6-(dimethylamino)-2-(2-fluoro-3-hydroxy-3-methylbutyl)-1-oxoisoindolin-5-yl)pyrazolo[1,5-a]pyrimidine-3-carboxamide], the Ki came to 6.4 nM. Take `Cn1cc(COc2cc3c(cc2NC(=O)c2cnn4cccnc24)CN(C[C@@H](F)C(C)(C)O)C3=O)cn1` [Example 60, (R)—N-(2-(2-Fluoro-3-hydroxy-3-methylbutyl)-6-((1-methyl-1H-pyrazol-4-yl)methoxy)-1-oxoisoindolin-5-yl)pyrazolo[1,5-a]pyrimidine-3-carboxamide]: the Ki came to 1.1 nM. For `CC(C)(O)[C@H](F)CN1Cc2cc(NC(=O)c3cnn4cccnc34)c(OCC(F)(F)F)cc2C1=O` [Example 135, (R)—N-(2-(2-Fluoro-3-hydroxy-3-methylbutyl)-1-oxo-6-(2,2,2-trifluoroethoxy)isoindolin-5-yl)pyrazolo[1,5-a]pyrimidine-3-carboxamide], the Ki was found to be 0.63 nM.

On to `CC(=O)NCCN1CCN(c2cc3c(cc2NC(=O)c2cnn4cccnc24)CC(C)(C)O3)CC1` [Example 3, N-(6-(4-(2-Acetamidoethyl)piperazin-1-yl)-2,2-dimethyl-2,3-dihydrobenzofuran-5-yl)pyrazolo[1,5-a]pyrimidine-3-carboxamide], for which the Ki came to 3.7 nM. Take `CCc1nc[nH]c1CN1CCN(c2cc3c(cc2NC(=O)c2cnn4cccnc24)CC(C)(C)O3)CC1` [Example 9, N-[6-[4-[(4-Ethyl-1H-imidazol-5-yl)methyl]piperazin-1-yl]-2,2-dimethyl-3H-benzofuran-5-yl]pyrazolo[1,5-a]pyrimidine-3-carboxamide]: the Ki was found to be 3.9 nM. Consider `CC(C)N1Cc2cc(NC(=O)c3cnn4cccnc34)c(C3CC3)cc2C1=O` [Example 97, N-(6-Cyclopropyl-2-isopropyl-1-oxoisoindolin-5-yl)pyrazolo[1,5-a]pyrimidine-3-carboxamide], for which the Ki is 5.2 nM. Regarding `O=C1CCc2cc(NC(=O)c3cnn4cccnc34)c(N3CCOCC3)cc2N1` [Example 46, N-(7-Morpholino-2-oxo-1,2,3,4-tetrahydroquinolin-6-yl)pyrazolo[1,5-a]pyrimidine-3-carboxamide], the Ki came to 42 nM.

On to `CC(C)(O)[C@H](F)CN1Cc2cc(NC(=O)c3cnn4cccnc34)c(OC3COC3)cc2C1=O` [Example 87, (R)-N-(2-(2-Fluoro-3-hydroxy-3-methylbutyl)-6-(oxetan-3-yloxy)-1-oxoisoindolin-5-yl)pyrazolo[1,5-a]pyrimidine-3-carboxamide], for which the Ki is 0.59 nM. In the case of `CC(C)(O)[C@H](F)CN1Cc2cc(NC(=O)c3cnn4cccnc34)c(N3CCN4CCC[C@@H]4C3)cc2C1=O` [Example 100, N-(2-((R)-2-Fluoro-3-hydroxy-3-methylbutyl)-6-((R)-hexahydropyrrolo[1,2-a]pyrazin-2(1H)-yl)-1-oxoisoindolin-5-yl)pyrazolo[1,5-a]pyrimidine-3-carboxamide], the Ki amounted to 1.8 nM. On the same count and under the same terms, with `CC(C)(O)[C@H](F)CN1Cc2cc(NC(=O)c3cnn4cccnc34)c(O[C@@H]3CCOC3)cc2C1=O` [Example 83, N-(2-((R)-2-Fluoro-3-hydroxy-3-methylbutyl)-1-oxo-6-(((R)-tetrahydrofuran-3-yl)oxy)isoindolin-5-yl)pyrazolo[1,5-a]pyrimidine-3-carboxamide] the figure was 0.71 nM. `COc1cc2c(cc1NC(=O)c1cnn3ccc(N4CCNCC4)nc13)CC(C)(C)O2` [Example 42, N-(6-Methoxy-2,2-dimethyl-2,3-dihydrobenzofuran-5-yl)-5-(piperazin-1-yl)pyrazolo[1,5-a]pyrimidine-3-carboxamide]: the Ki is 22 nM. For the compound `CCN1C[C@H](COc2cc3c(cc2NC(=O)c2cnn4cccnc24)CC(C)(C)O3)CC1=O` [Example 22, (R)-N-(6-((1-Ethyl-5-oxopyrrolidin-3-yl)methoxy)-2,2-dimethyl-2,3-dihydrobenzofuran-5-yl)pyrazolo[1,5-a]pyrimidine-3-carboxamide], the Ki worked out at 460 nM.
